Results published in paper PMC3190963 (Journal of structural biology, 2011).

Molecular target: human UPP1 (hUPP1) (Homo sapiens, UniProt Q16831)
Assay: absorbance change at […] nm, uridine to uracil
Format: biochemical
Details: uridine and inorganic phosphate; reference for hUPP2 activity

Sequence of human UPP1 (hUPP1) (Q16831 whole entry): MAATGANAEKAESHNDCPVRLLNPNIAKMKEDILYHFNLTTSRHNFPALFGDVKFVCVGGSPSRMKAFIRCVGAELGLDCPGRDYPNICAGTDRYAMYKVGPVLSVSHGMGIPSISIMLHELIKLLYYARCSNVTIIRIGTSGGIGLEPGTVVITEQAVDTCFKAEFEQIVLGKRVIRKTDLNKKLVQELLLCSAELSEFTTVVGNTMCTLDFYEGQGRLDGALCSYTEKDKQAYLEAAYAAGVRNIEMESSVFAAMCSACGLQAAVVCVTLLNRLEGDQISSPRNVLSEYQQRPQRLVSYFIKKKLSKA

## O=c1ccn([C@@H]2O[C@H](CO)[C@@H](O)[C@H]2O)c(=O)[nH]1 [uridine]
  absorbance change at 280 nm, uridine to uracil: in vitro activity of recombinant hUPP2 and hUPP1 was compared
